The source of these data is PubChem BioAssay AID1259407 (Chemical Carcinogenesis Research Information System (CCRIS), 2018).

Molecules are shown by their SMILES. The source made the active and inactive calls. The rule behind the calls is not given here.

For this data set, the system named is CCRIS mutagenicity, Ames/micronucleus/aberration tests. The experiment in a line: CCRIS mutagenicity studies.
Where [1] appears, read: Test System: AMES SALMONELLA TYPHIMURIUM, Strain/Indicator: TA98, Metabolic Activation: NONE, Method: STANDARD PLATE.
[2] abbreviates: Test System: AMES SALMONELLA TYPHIMURIUM, Strain/Indicator: TA100, Metabolic Activation: NONE, Method: STANDARD PLATE.
The mark [3] stands for this setting: Test System: AMES SALMONELLA TYPHIMURIUM, Strain/Indicator: TA1535, Metabolic Activation: NONE, Method: STANDARD PLATE.

With `Nc1cccc2nc3ccccc3cc12`, the mutagenic call by setting is: (Test System: AMES SALMONELLA TYPHIMURIUM, Strain/Indicator: TA1535, Metabolic Activation: NONE, Method: PREINCUBATION) “inactive; negative”; (Test System: AMES SALMONELLA TYPHIMURIUM, Strain/Indicator: TA1535, Metabolic Activation: RAT, LIVER, S-9, TETRACHLOROBIPHENYL, Method: PREINCUBATION) “inactive; negative”; (Test System: AMES SALMONELLA TYPHIMURIUM, Strain/Indicator: TA1537, Metabolic Activation: NONE, Method: PREINCUBATION) “active; positive”; (Test System: AMES SALMONELLA TYPHIMURIUM, Strain/Indicator: TA1537, Metabolic Activation: RAT, LIVER, S-9, TETRACHLOROBIPHENYL, Method: PREINCUBATION) “active; positive”; (Test System: AMES SALMONELLA TYPHIMURIUM, Strain/Indicator: TA1538, Metabolic Activation: NONE, Method: PREINCUBATION) “inactive; negative”; (Test System: AMES SALMONELLA TYPHIMURIUM, Strain/Indicator: TA1538, Metabolic Activation: RAT, LIVER, S-9, TETRACHLOROBIPHENYL, Method: PREINCUBATION) “active; positive”. Besides, the mutagenic call was “active; positive” (Test System: AMES SALMONELLA TYPHIMURIUM, Strain/Indicator: TA1977, Metabolic Activation: NONE, Method: PREINCUBATION); “active; positive” (Test System: AMES SALMONELLA TYPHIMURIUM, Strain/Indicator: TA1977, Metabolic Activation: RAT, LIVER, S-9, TETRACHLOROBIPHENYL, Method: PREINCUBATION); “inactive; negative” (Test System: AMES SALMONELLA TYPHIMURIUM, Strain/Indicator: TA1978, Metabolic Activation: RAT, LIVER, S-9, TETRACHLOROBIPHENYL, Method: PREINCUBATION).
As for `NNc1ccn([C@@H]2C[C@H](O)[C@@H](CO)O2)c(=O)n1`, the mutagenic call (Test System: CHINESE HAMSTER V-79, Strain/Indicator: V-79/6-THIOGUANINE, Metabolic Activation: NONE, Method: REPLATING) is “inactive; negative”.
As to `OC[C@H]1O[C@@H](n2cnc3c(NC[C@H](O)COc4cccc5ccccc45)ncnc32)[C@H](O)[C@@H]1O`, the mutagenic call reads like this: (Test System: AMES SALMONELLA TYPHIMURIUM, Strain/Indicator: TA97, Metabolic Activation: NONE, Method: STANDARD PLATE) “inactive; negative”; (Test System: AMES SALMONELLA TYPHIMURIUM, Strain/Indicator: TA97, Metabolic Activation: RAT, LIVER, S-9, AROCLOR 1254, Method: STANDARD PLATE) “inactive; negative”; under setting [1], “inactive; negative”; (Test System: AMES SALMONELLA TYPHIMURIUM, Strain/Indicator: TA98, Metabolic Activation: RAT, LIVER, S-9, AROCLOR 1254, Method: STANDARD PLATE) “inactive; negative”; under setting [2], “inactive; negative”; (Test System: AMES SALMONELLA TYPHIMURIUM, Strain/Indicator: TA100, Metabolic Activation: RAT, LIVER, S-9, AROCLOR 1254, Method: STANDARD PLATE) “inactive; negative”. In addition, the mutagenic call reads like this: under setting [3], “inactive; negative”; (Test System: AMES SALMONELLA TYPHIMURIUM, Strain/Indicator: TA1535, Metabolic Activation: RAT, LIVER, S-9, AROCLOR 1254, Method: STANDARD PLATE) “inactive; negative”; (Test System: AMES SALMONELLA TYPHIMURIUM, Strain/Indicator: TA1538, Metabolic Activation: NONE, Method: STANDARD PLATE) “inactive; negative”; (Test System: AMES SALMONELLA TYPHIMURIUM, Strain/Indicator: TA1538, Metabolic Activation: RAT, LIVER, S-9, AROCLOR 1254, Method: STANDARD PLATE) “inactive; negative”; (Test System: CHINESE HAMSTER OVARY, Strain/Indicator: CHO-KL-BH4 (HGPRT), Metabolic Activation: NONE) “inactive; negative”; (Test System: CHINESE HAMSTER OVARY, Strain/Indicator: CHO-KL-BH4 (HGPRT), Metabolic Activation: RAT, LIVER, S-9, AROCLOR 1254) “inactive; negative”. Besides, the mutagenic call is, setting by setting: (Test System: MOUSE LYMPHOMA, Strain/Indicator: L5178Y (TK+/TK-), Metabolic Activation: NONE, Method: SUSPENSION/PLATE) “inactive; negative”; (Test System: MOUSE LYMPHOMA, Strain/Indicator: L5178Y (TK+/TK-), Metabolic Activation: RAT, LIVER, S-9, AROCLOR 1254, Method: SUSPENSION/PLATE) “active; positive”.
Take `OC[C@@H](O)[C@@H](O)CO`: the mutagenic call under setting [1] is “inactive; negative”; the mutagenic call (Test System: AMES SALMONELLA TYPHIMURIUM, Strain/Indicator: TA98, Metabolic Activation: RAT, LIVER, S-9, Method: STANDARD PLATE) was “inactive; negative”; the mutagenic call under setting [2] is “inactive; negative”; the mutagenic call (Test System: AMES SALMONELLA TYPHIMURIUM, Strain/Indicator: TA100, Metabolic Activation: RAT, LIVER, S-9, Method: STANDARD PLATE) was “inactive; negative”; the mutagenic call under setting [3] was “inactive; negative”; the mutagenic call (Test System: AMES SALMONELLA TYPHIMURIUM, Strain/Indicator: TA1535, Metabolic Activation: RAT, LIVER, S-9, Method: STANDARD PLATE) was “inactive; negative”. Further, the mutagenic call by setting is: (Test System: AMES SALMONELLA TYPHIMURIUM, Strain/Indicator: TA1537, Metabolic Activation: NONE, Method: STANDARD PLATE) “inactive; negative”; (Test System: AMES SALMONELLA TYPHIMURIUM, Strain/Indicator: TA1537, Metabolic Activation: RAT, LIVER, S-9, Method: STANDARD PLATE) “inactive; negative”; (Test System: E. COLI, Strain/Indicator: WP2 UVRA, Metabolic Activation: NONE, Method: STANDARD PLATE) “inactive; negative”; (Test System: E. COLI, Strain/Indicator: WP2 UVRA, Metabolic Activation: RAT, LIVER, S-9, Method: STANDARD PLATE) “inactive; negative”.
Take `O=C(Nc1ccccc1)C1CO1` (configuration not stated): the mutagenic call by setting is: (Test System: AMES SALMONELLA TYPHIMURIUM, Strain/Indicator: TA100, Metabolic Activation: MOUSE, LIVER, S-9, AROCLOR 1254, Method: STANDARD PLATE) “active; positive”; under setting [2], “active; positive”.
Turning to `O=C(CCCCl)N=c1sn(C(=O)CCCCl)c2ccc(Cl)cc12`, under “Test System: AMES SALMONELLA TYPHIMURIUM, Strain/Indicator: TA100, Metabolic Activation: S-9, Method: STANDARD PLATE”, the mutagenic call was “active; positive”.
Regarding `Nc1ccn([C@@H]2CS[C@H](CO)O2)c(=O)n1`, the mutagenic call is, setting by setting: (Test System: Human TK6 Lymphoblastoid Cells, Strain/Indicator: HPRT, Metabolic Activation: None, Method: Standard Plate) “active; positive”; (Test System: Human TK6 Lymphoblastoid Cells, Strain/Indicator: TK, Metabolic Activation: None, Method: Standard Plate) “active; positive”; (Test System: Mouse lymphoma, Strain/Indicator: L5178Y (tk+/tk-), Metabolic Activation: None, Method: Suspension/plate) “inactive; negative”; (Test System: Mouse lymphoma, Strain/Indicator: L5178Y (tk+/tk-), Metabolic Activation: Rat, Liver, S-9, Aroclor 1254, Method: Suspension/plate) “inactive; negative”.
In the case of `OCc1c2ccccc2cc2c1ccc1ccccc12`, the mutagenic call is “active; positive” under setting [1]; “active; positive” (Test System: AMES SALMONELLA TYPHIMURIUM, Strain/Indicator: TA98, Metabolic Activation: RAT, LIVER, S-9, 3'-PHOSPHOADENOSINE 5'-PHOSPHOSULFATE GENERATING SYSTEM, Method: PREINCUBATION); “active; positive” (Test System: AMES SALMONELLA TYPHIMURIUM, Strain/Indicator: TA98, Metabolic Activation: RAT, LIVER, S-9, NADPH GENERATING SYSTEM, Method: PREINCUBATION); “active; positive” (Test System: AMES SALMONELLA TYPHIMURIUM, Strain/Indicator: TA98, Metabolic Activation: RAT, LIVER, S-105, 3'-PHOSPHOADENOSINE 5'-PHOSPHOSULFATE GENERATING SYSTEM, Method: PREINCUBATION).
In the case of `Nc1nc(NO)c2ncn([C@@H]3O[C@H](CO)[C@@H](O)[C@H]3O)c2n1`, the mutagenic call is, setting by setting: (Test System: AMES SALMONELLA TYPHIMURIUM, Strain/Indicator: TA100(TN5-1,8-DNP1011), Metabolic Activation: NONE, Method: STANDARD PLATE) “active; positive”; (Test System: AMES SALMONELLA TYPHIMURIUM, Strain/Indicator: TA100(TN5-1,8-DNP1012), Metabolic Activation: NONE, Method: STANDARD PLATE) “active; positive”; under setting [2], “active; positive”.
For the molecule `C[C@H](CCC(=O)O)[C@H]1CC[C@H]2[C@@H]3CC[C@@H]4C[C@@H](O)CC[C@]4(C)[C@H]3CC(=O)[C@]12C`, the mutagenic call by setting is: (Test System: AMES SALMONELLA TYPHIMURIUM, Strain/Indicator: TA98, Metabolic Activation: NONE, Method: FLUCTUATION TEST) “inactive; negative”; (Test System: AMES SALMONELLA TYPHIMURIUM, Strain/Indicator: TA98, Metabolic Activation: NONE, Method: PREINCUBATION) “inactive; negative”; (Test System: AMES SALMONELLA TYPHIMURIUM, Strain/Indicator: TA98, Metabolic Activation: RAT, LIVER, S-9, PCB, Method: PREINCUBATION) “inactive; negative”; (Test System: AMES SALMONELLA TYPHIMURIUM, Strain/Indicator: TA100, Metabolic Activation: NONE, Method: FLUCTUATION TEST) “inactive; negative”.
